{"source": "patent US20110268729A1", "about": "“TREATMENT OF AMYOTROPHIC LATERAL SCLEROSIS BY NOGO-A-ANTAGONIST” (priority 2008, published 2011)", "system": "SOD1^G93A mice", "experiment": "In vivo ALS model muscle physiology study with 2A10 and riluzole", "design": "species or system mouse", "description": "Fresh solutions were prepared once a week with the total consumed volume measured in order to ensure a constant daily and weekly dose.", "data": [{"compound": "Nc1nc2ccc(OC(F)(F)F)cc2s1", "note": "[Riluzole, 2-Amino-6-(trifluoromethoxy)benzothiazole]", "values": [{"measurement": "TA maximum tetanic force", "setting": "day 90, relative to SOD1-B vehicle group, riluzole 30 mg/kg p 0.0607, anti-Nogo-A 30 mg/kg p 0.1219, combination p 0.039", "result": "failed to reach statistical significance"}, {"measurement": "TA time to 1/2 relaxation", "setting": "day 90, vs SOD1 vehicle, riluzole plus 3 mg/kg anti-Nogo-A p value 0.0212", "result": "trend to normalisation"}]}]}
